Measurements from PMC11736144, “A sleepy cannabis constituent: cannabinol and its active metabolite influence sleep architecture in rats” (Neuropsychopharmacology, 2024).
Where two headings read alike, the source gives them in different places.

Legend:
male Long-Evans rats [1] = experiment: Repeated CBN dosing (15 days) polysomnography in rats; assay type: in vivo, rat; conditions: CBN 10 mg/kg IP daily for 15 days
Protocol: In the repeated dosing experiment, eight rats were randomly assigned to vehicle condition and eight to the CBN 10 mg/kg condition. Rats were administered the same treatment at ZT13 each day for 15 days, however, telemetry recordings were taken on days 1, 8, and 15 of respective treatments, and the response was compared between subjects.

[2] = Pharmacokinetic analysis of CBN and metabolites in rat plasma and brain (LC-MS/MS); assay type: in vivo
Protocol: Rats received 10 mg/kg CBN IP at approximately ZT13. Rats were then anesthetized with isoflurane at selected ZT points (13, 13.5, 14, 15, 17, 19, and 21) and blood was collected by terminal cardiac puncture. Brains were harvested, snap frozen on dry ice and plasma was isolated via centrifugation at 9000 × g for 10 min at 4 °C. All tissues were stored at −80 °C until analysis. CBN and metabolite concentrations in plasma and brain samples were assayed by liquid chromatography-tandem mass spectrometry (LC–MS/MS) using a using a Shimadzu Nexera LC-30AD UHPLC system coupled to a Shimadzu SPD-20AV photodiode array detector and a Shimadzu LC–MS-8040 triple-quadrupole mass spectrometer, equipped with an electrospray ionization (ESI) source (Shimadzu Corp.; Kyoto, Japan) as described previously.
LC-MS/MS. Plasma samples (50 µL) were spiked with internal standard (12.5 µg/mL d3-THC, 5 µL) and protein precipitation was achieved by vortex-mixing with a 3x volume of ice-cold acetonitrile. The organic layer was isolated by centrifugation (6000 g for 10 min, 4 °C) and evaporated to dryness using N2 gas. Samples were reconstituted in acetonitrile (90 µL) and 0.1% ammonium formate in water (300 µL) for supported-liquid extraction (SLE) using dichloromethane and methyl tert-butyl ether Biotage Isolute SLE+ columns (Uppsala, Sweden) as previously described. Brain samples were prepared as described for plasma samples with minor modifications. Briefly, each half brain was homogenised in methanol: water (2:1, 10x, w/v) and spiked with d3-THC as an internal standard. Homogenates were centrifuged (20,000 g for 30 min, 4 °C). Supernatants were then extracted and prepared as described above.
Quantification of CBN, 11-OH-CBN and 11-COOH-CBN in plasma and brain samples was performed by comparing experimental samples to eight-point standard curves prepared with known amounts of cannabinoid. Plasma and brain concentrations at each time point were averaged and pharmacokinetic parameters were calculated by noncompartmental analysis. Elimination rate constants were determined by linear regression of the terminal component of the concentration-time curve using GraphPad Prism 8.2 (La Jolla, USA). The log-linear trapezoidal method was used to calculate the area under concentration-time curve using equations described previously.

human CB2 receptors = molecular target: T1, human CB2 receptors (Homo sapiens, UniProt P34972); experiment: Membrane potential (GIRK) assay in AtT20 cells, human CB2; assay type: cell-based; conditions: at 10 µM; normalized to 1 µM CP 55,940
T1 construct: expressed in transfected cells; host or cells: mouse AtT20 FlpIn cells
T1 sequence (P34972 whole entry): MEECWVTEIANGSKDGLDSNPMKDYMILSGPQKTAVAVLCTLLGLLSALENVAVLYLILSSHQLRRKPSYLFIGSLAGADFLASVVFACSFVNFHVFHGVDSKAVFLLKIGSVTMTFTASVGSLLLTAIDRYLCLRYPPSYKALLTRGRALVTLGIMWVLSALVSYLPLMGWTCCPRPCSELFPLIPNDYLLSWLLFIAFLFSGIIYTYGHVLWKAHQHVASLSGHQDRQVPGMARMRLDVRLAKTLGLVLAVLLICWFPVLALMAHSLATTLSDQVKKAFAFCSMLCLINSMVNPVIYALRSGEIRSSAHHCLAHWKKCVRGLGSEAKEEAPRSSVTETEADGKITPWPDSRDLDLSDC

[3] = system: non-clinical sample of poor sleepers; set-up: method as in PMID 37796540; conditions: 20 mg CBN alone, self-reported measures, vs placebo; cited from earlier work
rats [4] = system: rats; set-up: method as in PMID 168604; conditions: cited from earlier work
rats [5] = conditions: cited from earlier work
[6] = cited from earlier work
[7] = rats, oral vs IP of the current study; cited from earlier work
human CB1 receptors [8] = molecular target: T2, human CB1 receptors (Homo sapiens, UniProt P21554); set-up: expressed in transfected cells; method as in PMID 7565624, PMID 9690851; conditions: some studies; cited from earlier work
T2 sequence (P21554 whole entry): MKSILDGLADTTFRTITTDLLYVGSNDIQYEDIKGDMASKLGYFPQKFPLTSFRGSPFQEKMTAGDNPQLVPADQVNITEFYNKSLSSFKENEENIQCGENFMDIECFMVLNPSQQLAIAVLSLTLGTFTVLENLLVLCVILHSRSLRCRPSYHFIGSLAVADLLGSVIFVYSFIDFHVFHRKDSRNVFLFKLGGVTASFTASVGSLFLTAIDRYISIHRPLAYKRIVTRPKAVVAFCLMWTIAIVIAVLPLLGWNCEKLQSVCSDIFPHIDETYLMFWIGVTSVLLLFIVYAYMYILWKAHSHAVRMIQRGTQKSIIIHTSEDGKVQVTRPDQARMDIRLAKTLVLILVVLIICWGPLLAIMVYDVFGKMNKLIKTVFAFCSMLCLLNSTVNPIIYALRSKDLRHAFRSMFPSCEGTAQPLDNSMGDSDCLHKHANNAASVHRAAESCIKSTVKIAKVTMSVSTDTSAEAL

male Long-Evans rats [9] = experiment: Acute polysomnography (wireless EEG/EMG telemetry) in rats
human CB1 receptors [10] = molecular target: T2, human CB1 receptors; experiment: cell-based; assay type: cell-based; set-up: expressed in transfected cells; host or cells: mouse AtT20 FlpIn cells
[11] = days 1, 8, 15, not subject to tolerance
[12] = rats, 10 and 30 mg/kg CBN IP, CBN 99.2% pure with 0.8% Δ8-THC, ref Järbe et al (1987)
[13] = acute IP at ZT13 vs vehicle, CBN 10, 30, 100 mg/kg, 11-OH-CBN 1, 3, 10 mg/kg
[14] = acute IP at ZT13 vs vehicle, CBN 10, 30, 100 mg/kg, zolpidem 10 mg/kg, 11-OH-CBN 1, 3, 10 mg/kg

## CCCCCc1cc(O)c2c(c1)OC(C)(C)c1ccc(C)cc1-2 [CBN, cannabinol]
Male Long-Evans rats [1]; days 1, 8, 15
  % NREM: increased % NREM initially on days 1 and 8, however this effect was diminished by day 15
  % REM: affected
  % quiet wake: affected
  REM bout duration: affected
  REM bout number: affected
  total wake time: decreased
Male Long-Evans rats [1]; days 1, 8, 15, main effect
  NREM sleep onset latency: increased
  REM sleep onset latency: increased
Male Long-Evans rats [1]; [11]
  NREM bout duration: increased
  NREM bout number: decreased
Male Long-Evans rats [1]; days 1, 8, 15, subject to tolerance
  % active wake: decreased
Male Long-Evans rats [1]; recordings days 1, 8, 15, between-subjects vs vehicle, n = 8
  total sleep time over days: increased
[2]; ip, rat brain after CBN 10 mg/kg, read-out: brain Tmax
  Tmax: 2 h
[2]; ip, rat plasma after CBN 10 mg/kg, read-out: plasma Tmax (converted)
  Tmax: 0.5 h
[2]; ip, rat, after CBN 10 mg/kg, similar in plasma and brain, read-out: half-life in plasma and brain (converted)
  half-life: ~2 h
[2]; rat brain after CBN 10 mg/kg IP, analyte as labelled
  Brain AUC∞: 1623 pg hour/mg brain
[2]; rat brain after CBN 10 mg/kg IP, analyte as labelled, n = 4
  Brain Cmax: 373 ± 26 pg/mg brain
[2]; rat brain after CBN 10 mg/kg IP, analyte as labelled, read-out: Brain t½ (converted)
  half-life: 2.2 h
[2]; rat brain following systemic administration of CBN
  Brain Cmax: 1.2 µM
[2]; rat plasma after CBN 10 mg/kg IP, analyte as labelled
  Plasma AUC∞: 775 ng·h/mL
[2]; rat plasma after CBN 10 mg/kg IP, analyte as labelled, n = 4
  Cmax: 374 ± 34 ng/mL
[2]; rat plasma after CBN 10 mg/kg IP, analyte as labelled, read-out: Plasma t½ (converted)
  half-life: 1.93 h
[2]; rat, after CBN 10 mg/kg IP, analyte as labelled
  Brain/plasma ratio: ~2
[2]; rat, brain and plasma, ip, 10 mg/kg, rat, after CBN 10 mg/kg IP, analyte as labelled, read-out: Brain/plasma ratio
  Kp: 2.09
[2]; rat, plasma, intraperitoneal, rats, 10 mg/kg CBN dose
  Cmax: 374 ng/mL
Human CB2 receptors
  activity at CB2: < 20%
[3]
  number of awakenings and overall sleep disturbance: significantly reduced
  sleep onset latency: did not influence
Rats [4]
  pentobarbital-induced sleep time: prolonged
Rats [5]; CBN up to 80 mg/kg IP, ref Fernandes et al (1974)
  body temperature or locomotor activity: did not influence
Rats [5]; [12]
  body temperature: reduced
  locomotor activity: suppressed
[6]
  highest plasma CBN concentration (Cmax) following cannabis smoking: 11.6 ng/mL
[7]
  plasma exposures (AUC), oral lower than intraperitoneal at the same dose: ~5 fold
Human CB1 receptors [8]
  activity at human CB1 receptors: inactive
Male Long-Evans rats [9]; CBN 10 mg/kg and 100 mg/kg, various time points from ZT16–20
  % NREM sleep compared to vehicle: significantly increased
Male Long-Evans rats [9]; CBN 10 mg/kg dose only, from ZT17
  cumulative total sleep time: significantly increased
Male Long-Evans rats [9]; CBN 30 mg/kg and 100 mg/kg at ZT17 and 18, zolpidem 10 mg/kg at ZT13 and 14
  NREM delta power at specific time points: increase
Male Long-Evans rats [9]; EEG power spectra, overall effect, acute IP, CBN 10, 30, 100 mg/kg, zolpidem 10 mg/kg, 11-OH-CBN 1, 3, 10 mg/kg
  NREM delta power: Neither CBN nor zolpidem had robust effects
Male Long-Evans rats [9]; EEG power spectra, acute IP, CBN 10, 30, 100 mg/kg, zolpidem 10 mg/kg, 11-OH-CBN 1, 3, 10 mg/kg
  REM theta power: increased
Male Long-Evans rats [9]; acute IP at ZT13
  delayed onset of action on % NREM sleep, time post-dosing: 3 to 4 h
Male Long-Evans rats [9]; acute IP at ZT13 (dark phase) vs vehicle, CBN 10, 30, 100 mg/kg, zolpidem 10 mg/kg, 11-OH-CBN 1, 3, 10 mg/kg, n = 8
  total sleep time: increased
Male Long-Evans rats [9]; [13]
  cumulative NREM time: biphasic effect
  cumulative REM time: similarly influenced
Male Long-Evans rats [9]; [14]
  % NREM sleep: increased
  % REM sleep: initially suppressed % REM, before it increased % REM at ZT17-18
  % active wake: decreased
  % quiet wake: affected
  NREM sleep onset latency: did not affect
  REM bout duration: initially decreased REM bout duration and then increased duration of REM bouts
  REM bout number: biphasically influenced
  REM sleep onset latency: increased
  cumulative total sleep time: biphasic effects
  mean duration of NREM bouts per hour: increased
  number of NREM bouts per hour: decreased
  total wake time: decreased
Male Long-Evans rats [9]; subcutaneous, telemetry, acute IP, CBN 10, 30, 100 mg/kg, zolpidem 10 mg/kg, 11-OH-CBN 1, 3, 10 mg/kg
  body temperature: did not robustly effect
Male Long-Evans rats [9]; telemetry, acute IP, CBN 10, 30, 100 mg/kg, zolpidem 10 mg/kg, 11-OH-CBN 1, 3, 10 mg/kg
  locomotor activity counts: decreased
Human CB1 receptors [10]
  EC50: 3.98 µM
  activity at CB1 receptors (in words): low activity
Human CB1 receptors [10]; AtT20, read-out: maximal response (Emax)
  Emax: 29 ± 3%
